Values after ≈ are worked out from the molar mass of the structure shown.
Columns and labels:
Streptococcus mutans [1] = experiment: Antibacterial activity against Streptococcus mutans ATCC 25175 assessed as effect on planktonic growth at 21.9 ug/ml after 20 hrs relative to control; assay type: functional
Streptococcus mutans [2] = experiment: Antibacterial activity against Streptococcus mutans ATCC 25175 assessed as effect on planktonic growth at 43.8 ug/ml after 20 hrs relative to control; assay type: functional
Streptococcus mutans [3] = experiment: Antibacterial activity against Streptococcus mutans ATCC 25175 assessed as effect on planktonic growth at 87.5 ug/ml after 20 hrs relative to control; assay type: functional
Staphylococcus aureus [4] = experiment: Antibacterial activity against Staphylococcus aureus ATCC 25923 assessed as effect on planktonic growth at 0.17 ug/ml after 20 hrs relative to control; assay type: functional
Staphylococcus aureus [5] = experiment: Antibacterial activity against Staphylococcus aureus ATCC 25923 assessed as effect on planktonic growth at 0.34 ug/ml after 20 hrs relative to control; assay type: functional
Staphylococcus aureus [6] = experiment: Antibacterial activity against Staphylococcus aureus ATCC 25923 assessed as effect on planktonic growth at 0.68 ug/ml after 20 hrs relative to control; assay type: functional
Staphylococcus aureus [7] = experiment: Antibacterial activity against Staphylococcus aureus ATCC 25923 assessed as effect on planktonic growth at 1.37 ug/ml after 20 hrs relative to control; assay type: functional
Staphylococcus aureus [8] = experiment: Antibacterial activity against Staphylococcus aureus ATCC 25923 assessed as effect on planktonic growth at 5.5 ug/ml after 20 hrs relative to control; assay type: functional
Staphylococcus aureus [9] = experiment: Antibacterial activity against Staphylococcus aureus ATCC 25923 assessed as effect on planktonic growth at 2.73 ug/ml after 20 hrs relative to control; assay type: functional
Staphylococcus aureus [10] = experiment: Antibacterial activity against Staphylococcus aureus ATCC 25923 assessed as effect on planktonic growth at 10.9 ug/ml after 20 hrs relative to control; assay type: functional
Staphylococcus aureus [11] = experiment: Antibacterial activity against Staphylococcus aureus ATCC 25923 assessed as effect on planktonic growth at 21.9 ug/ml after 20 hrs relative to control; assay type: functional
Staphylococcus aureus [12] = experiment: Antibacterial activity against Staphylococcus aureus ATCC 25923 assessed as effect on planktonic growth at 43.8 ug/ml after 20 hrs relative to control; assay type: functional
Staphylococcus aureus [13] = experiment: Antibacterial activity against Staphylococcus aureus ATCC 25923 assessed as effect on planktonic growth at 87.5 ug/ml after 20 hrs relative to control; assay type: functional
Pseudomonas aeruginosa [14] = experiment: Antibacterial activity against Pseudomonas aeruginosa ATCC 27853 assessed as effect on planktonic growth at 0.17 ug/ml after 20 hrs relative to control; assay type: functional
Pseudomonas aeruginosa [15] = experiment: Antibacterial activity against Pseudomonas aeruginosa ATCC 27853 assessed as effect on planktonic growth at 0.34 ug/ml after 20 hrs relative to control; assay type: functional
Pseudomonas aeruginosa [16] = experiment: Antibacterial activity against Pseudomonas aeruginosa ATCC 27853 assessed as effect on planktonic growth at 0.68 ug/ml after 20 hrs relative to control; assay type: functional
Pseudomonas aeruginosa [17] = experiment: Antibacterial activity against Pseudomonas aeruginosa ATCC 27853 assessed as effect on planktonic growth at 1.37 ug/ml after 20 hrs relative to control; assay type: functional
Pseudomonas aeruginosa [18] = experiment: Antibacterial activity against Pseudomonas aeruginosa ATCC 27853 assessed as effect on planktonic growth at 2.73 ug/ml after 20 hrs relative to control; assay type: functional
Pseudomonas aeruginosa [19] = experiment: Antibacterial activity against Pseudomonas aeruginosa ATCC 27853 assessed as effect on planktonic growth at 5.5 ug/ml after 20 hrs relative to control; assay type: functional
Pseudomonas aeruginosa [20] = experiment: Antibacterial activity against Pseudomonas aeruginosa ATCC 27853 assessed as effect on planktonic growth at 10.9 ug/ml after 20 hrs relative to control; assay type: functional
Pseudomonas aeruginosa [21] = experiment: Antibacterial activity against Pseudomonas aeruginosa ATCC 27853 assessed as effect on planktonic growth at 21.9 ug/ml after 20 hrs relative to control; assay type: functional
Pseudomonas aeruginosa [22] = experiment: Antibacterial activity against Pseudomonas aeruginosa ATCC 27853 assessed as effect on planktonic growth at 43.8 ug/ml after 20 hrs relative to control; assay type: functional
Pseudomonas aeruginosa [23] = experiment: Antibacterial activity against Pseudomonas aeruginosa ATCC 27853 assessed as effect on planktonic growth at 87.5 ug/ml after 20 hrs relative to control; assay type: functional
[24] = system: Staphylococcus epidermidis; experiment: Antibacterial activity against Staphylococcus epidermidis ATCC 35547 assessed as effect on planktonic growth at 0.17 ug/ml after 20 hrs relative to control; assay type: functional
[25] = system: Staphylococcus epidermidis; experiment: Antibacterial activity against Staphylococcus epidermidis ATCC 35547 assessed as effect on planktonic growth at 0.34 ug/ml after 20 hrs relative to control; assay type: functional
[26] = system: Staphylococcus epidermidis; experiment: Antibacterial activity against Staphylococcus epidermidis ATCC 35547 assessed as effect on planktonic growth at 0.68 ug/ml after 20 hrs relative to control; assay type: functional
[27] = system: Staphylococcus epidermidis; experiment: Antibacterial activity against Staphylococcus epidermidis ATCC 35547 assessed as effect on planktonic growth at 1.37 ug/ml after 20 hrs relative to control; assay type: functional
[28] = system: Staphylococcus epidermidis; experiment: Antibacterial activity against Staphylococcus epidermidis ATCC 35547 assessed as effect on planktonic growth at 2.73 ug/ml after 20 hrs relative to control; assay type: functional
[29] = system: Staphylococcus epidermidis; experiment: Antibacterial activity against Staphylococcus epidermidis ATCC 35547 assessed as effect on planktonic growth at 5.5 ug/ml after 20 hrs relative to control; assay type: functional
[30] = system: Staphylococcus epidermidis; experiment: Antibacterial activity against Staphylococcus epidermidis ATCC 35547 assessed as effect on planktonic growth at 10.9 ug/ml after 20 hrs relative to control; assay type: functional
[31] = system: Staphylococcus epidermidis; experiment: Antibacterial activity against Staphylococcus epidermidis ATCC 35547 assessed as effect on planktonic growth at 21.9 ug/ml after 20 hrs relative to control; assay type: functional
[32] = system: Staphylococcus epidermidis; experiment: Antibacterial activity against Staphylococcus epidermidis ATCC 35547 assessed as effect on planktonic growth at 43.8 ug/ml after 20 hrs relative to control; assay type: functional
[33] = system: Staphylococcus epidermidis; experiment: Antibacterial activity against Staphylococcus epidermidis ATCC 35547 assessed as effect on planktonic growth at 87.5 ug/ml after 20 hrs relative to control; assay type: functional
Pseudomonas aeruginosa [34] = experiment: Antibacterial activity against Pseudomonas aeruginosa ATCC 27853 assessed as inhibition of biofilm formation after 20 hrs by crystal-violet staining method; assay type: functional, organism-based
[35] = system: Staphylococcus epidermidis; experiment: Antibacterial activity against Staphylococcus epidermidis ATCC 35547 assessed as inhibition of biofilm formation after 20 hrs by crystal-violet staining method; assay type: functional, organism-based; settings: for IC50: ATCC 35547, 20 h
Streptococcus mutans [36] = experiment: Antibacterial activity against Streptococcus mutans ATCC 25175 assessed as effect on planktonic growth at 0.17 ug/ml after 20 hrs relative to control; assay type: functional
Streptococcus mutans [37] = experiment: Antibacterial activity against Streptococcus mutans ATCC 25175 assessed as effect on planktonic growth at 0.34 ug/ml after 20 hrs relative to control; assay type: functional
Streptococcus mutans [38] = experiment: Antibacterial activity against Streptococcus mutans ATCC 25175 assessed as effect on planktonic growth at 0.68 ug/ml after 20 hrs relative to control; assay type: functional
Streptococcus mutans [39] = experiment: Antibacterial activity against Streptococcus mutans ATCC 25175 assessed as effect on planktonic growth at 1.37 ug/ml after 20 hrs relative to control; assay type: functional
Streptococcus mutans [40] = experiment: Antibacterial activity against Streptococcus mutans ATCC 25175 assessed as effect on planktonic growth at 2.73 ug/ml after 20 hrs relative to control; assay type: functional
Streptococcus mutans [41] = experiment: Antibacterial activity against Streptococcus mutans ATCC 25175 assessed as effect on planktonic growth at 5.5 ug/ml after 20 hrs relative to control; assay type: functional
Streptococcus mutans [42] = experiment: Antibacterial activity against Streptococcus mutans ATCC 25175 assessed as effect on planktonic growth at 10.9 ug/ml after 20 hrs relative to control; assay type: functional

## COc1ccc(C)cc1C1=C(Br)C(=O)N(CC(C)C)C1(O)Cc1cccc(Cl)c1 (configuration not stated)
Streptococcus mutans [1]
  Activity: -12.5%
Streptococcus mutans [2]
  Activity: -21%
Streptococcus mutans [3]
  Activity: -31.2%
Staphylococcus aureus [4]
  Activity: 6.7%
Staphylococcus aureus [5]
  Activity: 11.4%
Staphylococcus aureus [6]
  Activity: 10.8%
Staphylococcus aureus [7]
  Activity: 9.7%
Staphylococcus aureus [8]
  Activity: 5.4%
Staphylococcus aureus [9]
  Activity: 12.8%
Staphylococcus aureus [10]
  Activity: 4.3%
Staphylococcus aureus [11]
  Activity: 3.4%
Staphylococcus aureus [12]
  Activity: -5%
Staphylococcus aureus [13]
  Activity: -12.1%
Pseudomonas aeruginosa [14]
  Activity: -1.6%
Pseudomonas aeruginosa [15]
  Activity: -1.3%
Pseudomonas aeruginosa [16]
  Activity: -2.6%
Pseudomonas aeruginosa [17]
  Activity: -3.4%
Pseudomonas aeruginosa [18]
  Activity: -7%
Pseudomonas aeruginosa [19]
  Activity: -8.6%
Pseudomonas aeruginosa [20]
  Activity: -9.6%
Pseudomonas aeruginosa [21]
  Activity: -7.9%
Pseudomonas aeruginosa [22]
  Activity: -10.6%
Pseudomonas aeruginosa [23]
  Activity: -11.6%
[24]
  Activity: 3.5%
[25]
  Activity: 2.4%
[26]
  Activity: 1.2%
[27]
  Activity: 0.9%
[28]
  Activity: 1.9%
[29]
  Activity: 12%
[30]
  Activity: -17.2%
[31]
  Activity: -7.3%
[32]
  Activity: -28.5%
[33]
  Activity: -7.8%
Pseudomonas aeruginosa [34]
  inhibition: Dose-dependent effect
[35]
  inhibition: Dose-dependent effect
  IC50: > 87.5 µg/mL
Streptococcus mutans [36]
  Activity: 3%
Streptococcus mutans [37]
  Activity: 2.4%
Streptococcus mutans [38]
  Activity: 1.1%
Streptococcus mutans [39]
  Activity: -4.8%
Streptococcus mutans [40]
  Activity: -2.9%
Streptococcus mutans [41]
  Activity: -11%
Streptococcus mutans [42]
  Activity: -7.6%

## COc1ccc(Br)cc1C1=C(Br)C(=O)O/C1=C\c1cccc(Cl)c1
Streptococcus mutans [1]
  Activity: -5.8%
Streptococcus mutans [2]
  Activity: 0.5%
Streptococcus mutans [3]
  Activity: 14.9%
Staphylococcus aureus [4]
  Activity: 13.8%
Staphylococcus aureus [5]
  Activity: 14.5%
Staphylococcus aureus [6]
  Activity: 20%
Staphylococcus aureus [7]
  Activity: 27%
Staphylococcus aureus [8]
  Activity: 36.6%
Staphylococcus aureus [9]
  Activity: 30.1%
Staphylococcus aureus [10]
  Activity: 43.6%
Staphylococcus aureus [11]
  Activity: 43.1%
Staphylococcus aureus [12]
  Activity: 75.8%
Staphylococcus aureus [13]
  Activity: 121.6%
Pseudomonas aeruginosa [14]
  Activity: 1.4%
Pseudomonas aeruginosa [15]
  Activity: 0.3%
Pseudomonas aeruginosa [16]
  Activity: -3.1%
Pseudomonas aeruginosa [17]
  Activity: -13.2%
Pseudomonas aeruginosa [18]
  Activity: -21.1%
Pseudomonas aeruginosa [19]
  Activity: -19.8%
Pseudomonas aeruginosa [20]
  Activity: -16.9%
Pseudomonas aeruginosa [21]
  Activity: -15%
Pseudomonas aeruginosa [22]
  Activity: -9.5%
Pseudomonas aeruginosa [23]
  Activity: -7.3%
[24]
  Activity: -1.7%
[25]
  Activity: -6.1%
[26]
  Activity: -1.6%
[27]
  Activity: -2.4%
[28]
  Activity: 0.1%
[29]
  Activity: 1.6%
[30]
  Activity: 8.6%
[31]
  Activity: 8.8%
[32]
  Activity: 20.6%
[33]
  Activity: 28.4%
Pseudomonas aeruginosa [34]
  inhibition: Dose-dependent effect
Pseudomonas aeruginosa [34]; ATCC 27853, 20 h
  IC50: > 87.5 µg/mL
[35]
  inhibition: Dose-dependent effect
  IC50: 40 µg/mL (≈ 85 µM)
Streptococcus mutans [36]
  Activity: -1%
Streptococcus mutans [37]
  Activity: 7.6%
Streptococcus mutans [38]
  Activity: 8.4%
Streptococcus mutans [39]
  Activity: 8.9%
Streptococcus mutans [40]
  Activity: 16.2%
Streptococcus mutans [41]
  Activity: 12.4%
Streptococcus mutans [42]
  Activity: 13.4%

— ChEMBL document CHEMBL3112480, “γ-Alkylidene-γ-lactones and isobutylpyrrol-2(5H)-ones analogues to rubrolides as inhibitors of biofilm formation by gram-positive and gram-negative bacteria” (Bioorg Med Chem Lett, 2014)
